Test results published in patent US5952339A, “Pharmaceutical compositions and methods of using nicotinic antagonists for treating a condition or disorder characterized by alteration in normal neurotransmitter release” (priority 1998, dated 1999).
Like-named read-outs stand apart in the source and are kept apart here.

Assays:
[1] = tested on: dopamine release; experiment: Determination of receptor activation/inhibition: dopamine release; type: biochemical; conditions: for Emax (dopamine release): amount released relative to (S)-(-)-nicotine or TMA
Experimental: Determination of Receptor Activation/Inhibition and Dopamine Release
Dopamine release was measured using the techniques described in U.S. Pat. No. 5,597,919 to Dull et al. Release is expressed as a percentage of release obtained with a concentration of (S)-(-)-nicotine resulting in maximal effects. Reported EC50 values are expressed in nM, and Emax values represent the amount released relative to (S)-(-)-nicotine or tetramethylammonium ion (TMA), on a percentage basis.
(§1) Reported IC50 values are expressed in nM and represent the concentration resulting in 50% inhibition of agonist induced receptor activation. Emax values represent the amount released relative to (S)-(-)-nicotine on a percentage basis.

[2] = target: T1, ganglia-type receptors (Rattus norvegicus, UniProt P04757+P12392); experiment: Determination of interaction with ganglion receptors; type: biochemical; conditions: percentage of the maximal activation induced by (S)-(-)-nicotine
T1 construct: endogenous in cells
Experimental: Determination of Interaction with Ganglion Receptors
(§2) The determination of the interaction of the compounds with ganglionic receptors was carried out in accordance with the techniques described in U.S. Pat. No. 5,597,919 to Dull et al. The maximal activation for individual compounds (Emax) was determined as a percentage of the maximal activation induced by (S)-(-)-nicotine. Reported Emax values represent the amount released relative to (S)-(-)-nicotine on a percentage basis.

[3] = target: T2, CNS nicotinic receptors (Rattus norvegicus, UniProt P09483+P12390); experiment: Isotopic rubidium ion release; type: biochemical; conditions: for Emax: read-out: Emax (rubidium ion release)
T2 construct: from tissue
Experimental: Isotopic rubidium release was measured using the techniques described in Bencherif et al., JPET, 279: 1413-1421 (1996). Reported EC50 values are expressed in nM, and Emax values represent the amount of rubidium ion released relative to 300 uM tetranmethylammonium ion, on a percentage basis.
as §1

[4] = target: T2, CNS nicotinic receptors; experiment: Determination of binding to relevant receptor sites
Experimental: Determination of Binding to Relevant Receptor Sites
Binding of the compounds to relevant receptor sites was determined in accordance with the techniques described in U.S. Pat. No. 5,597,919 to Dull et al. Inhibition constants (Ki values), reported in nM, were calculated from the IC50 values using the method of Cheng et al., Biochem, Pharmacol. 22:3099 (1973).

[5] = target: T3, muscle-type receptors (Homo sapiens, UniProt P02708+P07510+Q07001); experiment: Determination of interaction with muscle receptors; type: biochemical; conditions: percentage of the maximal activation induced by (S)-(-)-nicotine
T3 construct: endogenous in cells
Experimental: Determination of Interaction with Muscle Receptors
as §2, with “muscle” for “ganglionic”

[6] = read-out: EC50 (rubidium ion release)
[7] = calculated from IC50 values using the method of Cheng et al., read-out: Ki

T3 sequence (P02708 21-457): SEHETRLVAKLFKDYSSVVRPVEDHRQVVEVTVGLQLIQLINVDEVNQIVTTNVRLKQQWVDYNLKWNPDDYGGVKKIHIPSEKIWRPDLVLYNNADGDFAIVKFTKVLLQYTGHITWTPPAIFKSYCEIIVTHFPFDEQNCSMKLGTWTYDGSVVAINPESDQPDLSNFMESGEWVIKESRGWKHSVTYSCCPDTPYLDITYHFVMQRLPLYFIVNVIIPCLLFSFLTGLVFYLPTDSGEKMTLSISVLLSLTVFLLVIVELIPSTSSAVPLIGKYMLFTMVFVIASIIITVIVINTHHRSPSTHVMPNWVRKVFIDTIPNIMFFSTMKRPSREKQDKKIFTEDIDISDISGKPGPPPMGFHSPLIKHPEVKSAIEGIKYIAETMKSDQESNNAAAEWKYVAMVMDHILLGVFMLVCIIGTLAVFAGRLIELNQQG
T3 sequence (P11230 24-501, further chain): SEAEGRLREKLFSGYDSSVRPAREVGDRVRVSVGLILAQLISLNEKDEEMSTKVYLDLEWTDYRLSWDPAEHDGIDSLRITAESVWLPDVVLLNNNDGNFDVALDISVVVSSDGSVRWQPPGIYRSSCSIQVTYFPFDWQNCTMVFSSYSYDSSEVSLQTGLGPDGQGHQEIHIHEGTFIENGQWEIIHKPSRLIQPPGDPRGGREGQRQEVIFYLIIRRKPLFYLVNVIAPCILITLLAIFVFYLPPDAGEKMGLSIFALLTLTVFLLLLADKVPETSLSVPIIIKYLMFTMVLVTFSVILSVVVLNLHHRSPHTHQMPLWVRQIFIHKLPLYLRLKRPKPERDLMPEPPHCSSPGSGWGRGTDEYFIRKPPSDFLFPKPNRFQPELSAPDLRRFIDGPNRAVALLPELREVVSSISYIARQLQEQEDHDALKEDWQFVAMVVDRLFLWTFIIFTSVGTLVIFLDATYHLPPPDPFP
T3 sequence (P07510 23-517): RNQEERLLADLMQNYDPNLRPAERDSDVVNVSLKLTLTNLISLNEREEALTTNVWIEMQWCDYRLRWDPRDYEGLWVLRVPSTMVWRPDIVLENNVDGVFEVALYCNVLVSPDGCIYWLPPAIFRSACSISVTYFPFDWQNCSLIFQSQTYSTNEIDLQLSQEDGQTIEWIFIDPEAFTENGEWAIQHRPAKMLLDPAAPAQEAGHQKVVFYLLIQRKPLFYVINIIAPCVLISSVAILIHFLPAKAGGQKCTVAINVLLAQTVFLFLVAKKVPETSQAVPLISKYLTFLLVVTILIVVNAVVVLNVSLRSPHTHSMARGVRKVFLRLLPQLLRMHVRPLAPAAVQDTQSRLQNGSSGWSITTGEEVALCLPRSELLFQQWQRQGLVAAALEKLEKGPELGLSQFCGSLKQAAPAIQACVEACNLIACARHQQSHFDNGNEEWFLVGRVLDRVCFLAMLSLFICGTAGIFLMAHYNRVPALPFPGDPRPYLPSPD
T3 sequence (Q07001 22-517): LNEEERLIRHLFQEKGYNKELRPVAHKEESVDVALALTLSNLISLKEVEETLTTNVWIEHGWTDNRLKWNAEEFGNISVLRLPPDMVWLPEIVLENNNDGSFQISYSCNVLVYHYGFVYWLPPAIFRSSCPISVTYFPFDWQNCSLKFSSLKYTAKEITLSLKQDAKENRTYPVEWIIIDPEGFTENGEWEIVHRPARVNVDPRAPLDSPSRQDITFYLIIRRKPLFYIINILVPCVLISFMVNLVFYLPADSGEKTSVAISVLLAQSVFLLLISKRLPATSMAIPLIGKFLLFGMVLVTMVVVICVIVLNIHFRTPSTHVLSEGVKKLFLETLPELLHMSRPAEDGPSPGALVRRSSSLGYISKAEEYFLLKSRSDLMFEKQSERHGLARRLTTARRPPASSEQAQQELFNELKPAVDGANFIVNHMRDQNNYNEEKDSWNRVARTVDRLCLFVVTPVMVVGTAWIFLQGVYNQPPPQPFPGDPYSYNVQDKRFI
T1 sequence (P04757 26-499): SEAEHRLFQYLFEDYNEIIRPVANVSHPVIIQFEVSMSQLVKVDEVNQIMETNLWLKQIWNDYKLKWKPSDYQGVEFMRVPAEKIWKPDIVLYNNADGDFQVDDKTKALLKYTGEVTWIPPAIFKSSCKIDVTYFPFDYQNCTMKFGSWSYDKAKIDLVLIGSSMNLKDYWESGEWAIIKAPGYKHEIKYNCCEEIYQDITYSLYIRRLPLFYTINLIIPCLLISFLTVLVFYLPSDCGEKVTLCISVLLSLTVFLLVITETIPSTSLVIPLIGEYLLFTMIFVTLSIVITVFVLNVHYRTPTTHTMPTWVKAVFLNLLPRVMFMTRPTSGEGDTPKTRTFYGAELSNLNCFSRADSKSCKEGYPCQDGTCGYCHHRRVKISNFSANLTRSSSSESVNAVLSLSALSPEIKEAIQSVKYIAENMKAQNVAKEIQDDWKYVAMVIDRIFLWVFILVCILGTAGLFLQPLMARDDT
T1 sequence (P12392 21-495): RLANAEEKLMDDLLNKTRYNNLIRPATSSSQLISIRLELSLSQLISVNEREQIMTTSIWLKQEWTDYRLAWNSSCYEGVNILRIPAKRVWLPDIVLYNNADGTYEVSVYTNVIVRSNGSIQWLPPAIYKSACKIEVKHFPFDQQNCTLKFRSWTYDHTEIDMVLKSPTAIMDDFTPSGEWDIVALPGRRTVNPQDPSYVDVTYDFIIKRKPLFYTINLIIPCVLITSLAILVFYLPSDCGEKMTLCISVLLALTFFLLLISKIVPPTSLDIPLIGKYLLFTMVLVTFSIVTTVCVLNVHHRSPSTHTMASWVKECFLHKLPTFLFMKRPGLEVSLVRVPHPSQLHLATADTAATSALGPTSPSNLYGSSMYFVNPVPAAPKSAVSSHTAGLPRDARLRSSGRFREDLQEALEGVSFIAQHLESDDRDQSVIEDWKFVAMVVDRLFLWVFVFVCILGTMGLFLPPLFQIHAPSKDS
T2 sequence (P09483 31-630): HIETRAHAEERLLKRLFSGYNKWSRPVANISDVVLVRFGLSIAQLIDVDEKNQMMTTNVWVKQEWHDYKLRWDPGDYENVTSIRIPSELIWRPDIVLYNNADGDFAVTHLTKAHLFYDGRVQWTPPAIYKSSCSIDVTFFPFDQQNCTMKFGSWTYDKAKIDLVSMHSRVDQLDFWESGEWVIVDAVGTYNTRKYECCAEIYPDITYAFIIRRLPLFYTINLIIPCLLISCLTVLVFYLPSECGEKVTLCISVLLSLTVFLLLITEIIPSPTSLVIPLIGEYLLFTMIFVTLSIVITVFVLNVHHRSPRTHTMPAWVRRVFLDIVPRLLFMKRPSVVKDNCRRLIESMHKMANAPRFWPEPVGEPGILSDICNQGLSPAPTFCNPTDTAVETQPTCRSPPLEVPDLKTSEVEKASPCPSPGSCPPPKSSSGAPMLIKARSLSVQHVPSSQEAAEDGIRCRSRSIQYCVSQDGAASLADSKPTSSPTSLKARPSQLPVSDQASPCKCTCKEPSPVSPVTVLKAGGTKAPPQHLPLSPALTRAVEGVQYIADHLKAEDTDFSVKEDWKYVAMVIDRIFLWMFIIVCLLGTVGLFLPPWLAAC
T2 sequence (P12390 25-500): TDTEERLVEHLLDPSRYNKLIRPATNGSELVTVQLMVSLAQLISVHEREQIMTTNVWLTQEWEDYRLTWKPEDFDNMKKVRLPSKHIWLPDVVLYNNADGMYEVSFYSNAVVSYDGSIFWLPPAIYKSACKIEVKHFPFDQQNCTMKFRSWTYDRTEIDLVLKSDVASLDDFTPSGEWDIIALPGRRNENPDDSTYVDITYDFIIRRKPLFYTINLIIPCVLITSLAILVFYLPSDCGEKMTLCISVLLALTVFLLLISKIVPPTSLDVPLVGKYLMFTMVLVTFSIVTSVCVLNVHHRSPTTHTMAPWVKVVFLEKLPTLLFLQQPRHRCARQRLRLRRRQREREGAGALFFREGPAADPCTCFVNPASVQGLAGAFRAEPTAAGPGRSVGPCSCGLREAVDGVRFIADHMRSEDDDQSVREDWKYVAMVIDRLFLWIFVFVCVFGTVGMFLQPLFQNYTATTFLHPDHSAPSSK

Compound	Emax (dopamine release) [1] [%]	Emax [2] [%]	EC50 [3, 6] [nM]	Emax [3] [%]	Ki [4] [nM]	Emax [5] [%]	EC50 [3] [nM]	Ki [4, 7] [nM]	IC50 ([1]; 50% inhibition of agonist induced receptor activation) [nM]	IC50 [3] [nM]
CC(C)Oc1cncc(C2C3CC4CC(C3)CN2C4)c1 (stereo not drawn) [Sample No. 5, 1-aza-2-[5-isopropoxy-(3-pyridyl)]tricyclo[3.3.1.1^3,7]decane]	0	7	> 100000	0	24	114				
Brc1cncc(C2C3CC4CC(C3)CN2C4)c1 (stereo not drawn) [Sample No. 2, 1-aza-2-[5-bromo(3-pyridyl)]tricyclo[3.3.1.1^3,7]decane]	0	50	> 100000	0	2	32				
Cl.Cl.Cl.Nc1cncc(C2C3CC4CC(C3)CN2C4)c1 (stereo not drawn) [Sample No. 3, 1-aza-2-[5-amino-(3-pyridyl)]tricyclo[3.3.1.1^3,7]decane trihydrochloride]	0	17		0		75	> 100000	44		
c1cncc(C2C3CC4CC(C3)CN2C4)c1 (stereo not drawn) [Sample No. 1, 1-aza-2-(3-pyridyl)-tricyclo[3.3.1.1^3,7]decane]	0	27				21		15		
CCOc1cncc(C2C3CC4CC(C3)CN2C4)c1 (stereo not drawn) [Sample No. 4, 1-aza-2-[5-ethoxy-(3-pyridyl)]-tricyclo-[3.3.1.1^3,7]decane]	0	0	> 100000	0	1	22			846	630
